In patent US11980620B2, “Compounds and methods for treatment of Diamond Blackfan anemia” (THE CHILDREN'S MEDICAL CENTER CORPORATION, priority 2017, dated 2024):

Experiments:
[1] = system: CB CD34+ cells; type: in vivo, NSG mice
Description: (FIG. 10A) SMER28 rescues RBC output in rps29^+/− zebrafish embryos. The level of hemoglobin in the yolk sac was visualized 40hpf with benzidine staining. Images are representative of the proportion of embryos indicated (of total counted). (FIG. 10B) Quantitation of SMER28 rescue for a range of 0.1-1 μM, with embryos grouped by high, medium, and low levels of hemoglobin staining. (FIG. 10C) Peripheral blood (PB) RBC counts and hematocrit in mice with irradiation-induced anemia. Mice were treated with the PEG400-based vehicle containing DMSO (VEH) (n=11), 1 mg/kg Dex (sodium-phosphate) (n=13), or 10 mg/kg SMER28 (n=9) for 3 weeks, bled, and assessed. Data are combined from 3 independent experiments. (FIG. 10D) Erythroid cells as proportion of the human graft in mice transplanted with DBA CD34-5F progenitors, and treated as in (FIG. 1c). (FIG. 10E) Levels of human engraftment in NSG mouse bone marrow (BM) transplanted with CB CD34^+ cells. Mice were treated with DMSO plus vehicle (VEH) (n=10), 1 mg/kg Dex (sodium-phosphate) (n=6), or 2 mg/kg SMER28 (n=11) for 4 weeks. (FIG. 10F) The proportion of erythroid, myeloid, and lymphoid (B cells) lineages within the human graft in vehicle- and SMER28-treated mice transplanted with CB CD34^+ cells. Only the effect on the erythroid lineage was significant. Data in FIGS. 10E-10G are pooled from 2 independent experiments. For all panels, *p<0.05, * *p<0.01.
Drug treatments. SMER28 was purchased from Tocris and diluted in 10 mM aliquots in DMSO. The final concentration for CD34-5F and CB CD34^+erythroid treatments was 0.2-10 μM as indicated in the text. The final concentration for K562 cell treatments was 20-40 μM. Ferric citrate (1-50 μM) and deferoxamine (100-200 μM) (Sigma) were dissolved in PBS and added on days 0-4 of “expansion” culture, and washed off prior to erythroid stage I (days 4-9) differentiation. For in vivo experiments, SMER28 aliquots were diluted in vehicle solution: 30% PEG-400, 5% propylene glycol, and 0.5% Tween-80. Dosing for human xenograft experiments was 2 mg/kg; for mouse models 10-20 mg/kg. Dexamethasone was purchased as Dex-sodium phosphate (DexSP) water-soluble formulation (Santa Cruz), and diluted in PBS vehicle (1 mg/kg). NSG mice were sub-lethally irradiated at 275 rads, and administered 100 μl of drug or vehicle by oral gavage daily.

[2] = system: rps29+/- zebrafish with atg5 knockdown; experiment: atg5 morpholino knockdown in rps29+/- zebrafish, hemoglobin staining; type: in vivo; details: 1.6 ng atg5 morpholino; SMER28 1 μM
Description: FIGS. 11A-11C show effect of SMER28 on CD34+ progenitors. (FIG. 11A) Protein levels of LC3-I and LC3-II in control and SMER28 treated mice. GADPH is used as a loading control. […] (FIG. 11C) Atg5 morpholino treatment of rps29^+/− zebrafish.
(FIG. 13A) Induction of autophagy by SMER28 (40 μM) monitored by protein levels of p62, LC3-I, and LC3-II after 24 hours. Cells were also treated with 5-FU (100 nM) to induce autophagy, or inhibitor of transcription actinomycin D (ActD; 100 nM). (FIG. 13B) Induction of autophagy by SMER28 (40 μM) monitored by protein levels of p62, LC3-I, and LC3-II after 24 hours treatment with or without lysosomal blockade with bafilomycin A (200 nM for 4 hours). Untreated samples are shown at higher exposure, to capture dynamic changes in the LC3-II levels. Rapamycin (200 nM) is a positive control. LC3-II levels relative to GAPDH are quantitated on the right. (FIG. 13C) Erythroid differentiation of CD34-5F cells transduced with shRNAs for luciferase (LUC) or ATG5±SMER28. Representative flow plots and quantitation showing the number of erythroid cells induced by SMER28 (10 μM) normalized to DMSO. […] Representative images (left), and quantitation (right) with embryos grouped by high, medium, and low levels of benzidine staining. […]

[3] = system: A53T alpha-synuclein; details: PC-12 cells; independent of rapamycin treatment; cited from earlier work

C=CCNc1ncnc2ccc(Br)cc12 [SMER28, 6-Bromo-N-2-propenyl-4-quinazolinam]
distribution of myeloid and lymphoid lineages in human graft ([1]; 2 mg/kg SMER28 for 4 weeks): did not affect | erythroid contribution to human graft (RBCs as proportion of human graft) ([1]; 2 mg/kg SMER28 for 4 weeks, vehicle 5.5%, p=0.05): 13.0% | human chimerism in bone marrow ([1]; 2 mg/kg for 4 weeks, ns vs vehicle): 25.2% | rescue of erythropoiesis after atg5 knockdown [2]: abolished | A53T alpha-synuclein clearance [3]: Enhances
